# Experimental data: US20250145665A1, “MACROCYCLIC PEPTIDES USEFUL AS MODULATORS OF TNF ALPHA” (Bristol-Myers Squibb Company, priority 2023, published 2025)
# Starred links: 1 amine or outer side, 2 acyl side, 3 side chain; linkers in the order of their positions; H or OH if unused. Positions of bridges follow the written chain, without caps; N, C: chain ends. Non-standard residues stand in square brackets, D forms with d. Residues, ends and D or L forms follow the SMILES beside them. ξ: configuration not given here. *: point of attachment. Bip(4'-NHCO-C6H4-4-CH2COOH) = N[C@@H](Cc1ccc(-c2ccc(NC(=O)c3ccc(CC(=O)O)cc3)cc2)cc1)C(=O)O; X5 = Cn1nc(C(=O)Nc2ccc(-c3ccc(C[C@H](N[*:1])C(=O)[*:2])cc3)cc2)c2ccccc21; Bip(4'-NH) = O=C([C@H](Cc1ccc(-c2ccc(N[*:3])cc2)cc1)N[*:1])[*:2]; dArg(ω-(3-HO-benzyl)) = N=C(NCCC[C@@H](N)C(=O)O)NCc1cccc(O)c1; Indazole3carbonyl(1-CH2COOH) = O=C(O)Cn1nc(C(=O)*)c2ccccc21; Bip(4'-COOH) = N[C@@H](Cc1ccc(-c2ccc(C(=O)O)cc2)cc1)C(=O)O; Bip(4'-NHAc) = CC(=O)Nc1ccc(-c2ccc(C[C@H](N)C(=O)O)cc2)cc1; Phe(3-CH2NH2) = O=C([C@H](Cc1cccc(CN[*:3])c1)N[*:1])[*:2]; Phe(4-(4-pyridyl)) = N[C@@H](Cc1ccc(-c2ccncc2)cc1)C(=O)O; Ala(imidazol-2-yl) = N[C@@H](Cc1ncc[nH]1)C(=O)O; dArg(ω-Bn) = N=C(NCCC[C@@H](N)C(=O)O)NCc1ccccc1; Ala(morpholin-4-yl) = N[C@@H](CN1CCOCC1)C(=O)O; Benzoyl(3-OCH2COOH) = O=C(O)COc1cccc(C(=O)*)c1; Phe(4-CH2NH2) = NCc1ccc(C[C@H](N)C(=O)O)cc1; Bip = N[C@@H](Cc1ccc(-c2ccccc2)cc1)C(=O)O; Val(3-OH) = CC(C)(O)[C@H](N)C(=O)O; 2Pal = N[C@@H](Cc1ccccn1)C(=O)O; 3Pal = N[C@@H](Cc1cccnc1)C(=O)O; Cha = N[C@@H](CC1CCCCC1)C(=O)O; Chg = N[C@H](C(=O)O)C1CCCCC1; ξIle = CC[C@H](C)C(N)C(=O)O; Nle = CCCC[C@H](N)C(=O)O; Sar = CNCC(=O)O
# Molecular target: TNFα (Homo sapiens, UniProt P01375)
# Assay: TNF-Induced HEK-Blue Assay
# Type: cell-based
# Details: not given
# TNFα, sequence (P01375 77-233 limits assumed): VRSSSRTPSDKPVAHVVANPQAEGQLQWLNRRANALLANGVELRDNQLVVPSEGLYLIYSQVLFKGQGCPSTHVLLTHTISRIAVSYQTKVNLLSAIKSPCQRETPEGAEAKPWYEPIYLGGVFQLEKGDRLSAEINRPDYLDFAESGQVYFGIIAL
row,SMILES,IC50 [nM]
1,CC[C@H](C)[C@@H]1NC(=O)[C@@H](CCCNC(=N)N)NC(=O)[C@H](CC(=O)O)NC(=O)[C@H](Cc2cnc[nH]2)NC(=O)CN(C)C(=O)[C@H](Cc2ccc(-c3ccc(NC(=O)c4nn(CC(=O)O)c5ccccc45)cc3)cc2)NC(=O)[C@H](Cc2ccc(-c3ccccc3)cc2)NC(=O)[C@H](CC2CCCCC2)NC(=O)CSC[C@@H](C(=O)NCC(N)=O)NC(=O)[C@H](CC(C)C)NC(=O)[C@H](Cc2cnc[nH]2)NC(=O)[C@H](C(C)C)NC(=O)[C@@H]2CCCN2C1=O [Example 364] ({CH2CO}-[Cha][Bip][Bip(4'-NH)](Indazole3carbonyl(1-CH2COOH))[Sar]HD[dR]IPVHLCG-NH2; thioether N-13),< 50
2,CC[C@H](C)[C@@H]1NC(=O)[C@@H](CCCNC(=N)NCc2cccc(O)c2)NC(=O)[C@H](CC(=O)O)NC(=O)[C@@H]2CCCN2C(=O)CN(C)C(=O)[C@H](Cc2ccc(-c3ccc(NC(=O)c4nn(CC(=O)O)c5ccccc45)cc3)cc2)NC(=O)[C@H](Cc2ccc(-c3ccccc3)cc2)NC(=O)[C@H](CN2CCOCC2)NC(=O)CSC[C@@H](C(=O)NCC(N)=O)NC(=O)[C@H](CC(C)C)NC(=O)[C@H](Cc2cnc[nH]2)NC(=O)[C@H](C(C)C)NC(=O)[C@@H]2CCCN2C1=O [Example 637] ({CH2CO}-[Ala(morpholin-4-yl)][Bip][Bip(4'-NH)](Indazole3carbonyl(1-CH2COOH))[Sar]PD[dArg(ω-(3-HO-benzyl))]IPVHLCG-NH2; thioether N-13),< 50

# Same assay, conditions: HEK-Blue-CD40L cells, NF-kB-driven secreted alkaline phosphatase reporter; TNFα 0.5 ng/ml; 18 h; read-out: TNF induced HEK-Blue assay IC50 value
row,SMILES,IC50 [nM]
1,CC(C)C[C@@H]1NC(=O)[C@H](Cc2ncc[nH]2)NC(=O)[C@H](C(C)C)NC(=O)[C@@H]2CCCN2C(=O)[C@H](C(C)C)NC(=O)[C@@H](CCCNC(=N)NCc2ccccc2)NC(=O)[C@H](CC(=O)O)NC(=O)[C@H](Cc2ccccn2)NC(=O)CN(C)C(=O)[C@H](Cc2ccc(-c3ccc(NC(=O)c4ccc(CC(=O)O)cc4)cc3)cc2)NC(=O)[C@H](Cc2ccc(-c3ccccc3)cc2)NC(=O)[C@H](CN2CCOCC2)NC(=O)CSC[C@@H](C(=O)NCC(N)=O)NC1=O [Example 642] ({CH2CO}-[Ala(morpholin-4-yl)][Bip][Bip(4'-NHCO-C6H4-4-CH2COOH)][Sar][2Pal]D[dArg(ω-Bn)]VPV[Ala(imidazol-2-yl)]LCG-NH2; thioether N-13),200 to 2000
2,CC(C)C[C@@H]1NC(=O)[C@H](Cc2ccc(CN)cc2)NC(=O)[C@H](C(C)C)NC(=O)[C@@H]2CCCN2C(=O)[C@H](C(C)C)NC(=O)[C@H](CCCNC(=N)N)NC(=O)[C@H](CC(=O)O)NC(=O)[C@@H]2CCCN2C(=O)CN(C)C(=O)[C@H](Cc2ccc(-c3ccccc3)cc2)NC(=O)[C@H](Cc2ccc(-c3ccccc3)cc2)NC(=O)[C@H](Cc2ccccc2)NC(=O)CSC[C@@H](C(=O)NCC(N)=O)NC1=O [Example 36] ({CH2CO}-F[Bip][Bip][Sar]PDRVPV[Phe(4-CH2NH2)]LCG-NH2; thioether N-13),200 to 2000
3,CC[C@H](C)[C@@H]1NC(=O)[C@@H](CCCNC(=N)N)NC(=O)[C@H](CC(=O)O)NC(=O)[C@@H]2CCCN2C(=O)CN(C)C(=O)[C@H](Cc2ccc(-c3ccc(NC(=O)c4cccc(OCC(=O)O)c4)cc3)cc2)NC(=O)[C@H](Cc2ccc(-c3ccc(C(=O)O)cc3)cc2)NC(=O)[C@H](CN2CCOCC2)NC(=O)CSC[C@@H](C(=O)NCC(N)=O)NC(=O)[C@H](CC(C)C)NC(=O)[C@H](Cc2cnc[nH]2)NC(=O)[C@H](C(C)C)NC(=O)[C@@H]2CCCN2C1=O [Example 577] ({CH2CO}-[Ala(morpholin-4-yl)][Bip(4'-COOH)][Bip(4'-NH)](Benzoyl(3-OCH2COOH))[Sar]PD[dR]IPVHLCG-NH2; thioether N-13),50 to 200
4,CC[C@H](C)C1NC(=O)[C@@H]2CCCN2C(=O)[C@H]([C@@H](C)CC)NC(=O)[C@@H](CCCNC(=N)N)NC(=O)[C@H](CC(=O)O)NC(=O)[C@H](Cc2ccccn2)NC(=O)CN(C)C(=O)[C@H](Cc2ccc(-c3ccc(NC(C)=O)cc3)cc2)NC(=O)[C@H](Cc2ccc(-c3ccc(C(=O)O)cc3)cc2)NC(=O)[C@H](CC2CCCCC2)NC(=O)CSC[C@@H](C(=O)NCC(N)=O)NC(=O)[C@H](CC(C)C)NC(=O)[C@H](CCCNC(=N)N)NC1=O (stereo partly drawn) [Example 291] ({CH2CO}-[Cha][Bip(4'-COOH)][Bip(4'-NHAc)][Sar][2Pal]D[dR]IP[ξIle]RLCG-NH2; thioether N-13),< 50
5,CC(=O)Nc1ccc(-c2ccc(C[C@@H]3NC(=O)[C@H](Cc4ccc(-c5ccccc5)cc4)NC(=O)[C@H](CN4CCOCC4)NC(=O)CSC[C@@H](C(=O)NCC(N)=O)NC(=O)[C@H](CC(C)C)NC(=O)[C@H](CCCNC(=N)N)NC(=O)[C@H](C(C)C)NC(=O)[C@@H]4CCCN4C(=O)[C@H](C(C)C)NC(=O)[C@H](CCCNC(=N)N)NC(=O)[C@H](CC(=O)O)NC(=O)[C@@H]4CCCN4C(=O)CN(C)C3=O)cc2)cc1 [Example 126] ({CH2CO}-[Ala(morpholin-4-yl)][Bip][Bip(4'-NHAc)][Sar]PDRVPVRLCG-NH2; thioether N-13),50 to 200
6,CC(C)C[C@@H]1NC(=O)[C@H](Cc2ccc(O)cc2)NC(=O)[C@H](C(C)C)NC(=O)[C@H](Cc2cccnc2)NC(=O)[C@H](C(C)C)NC(=O)[C@H](CCCNC(=N)N)NC(=O)[C@H](CC(=O)O)NC(=O)[C@H](Cc2ccc(O)cc2)NC(=O)CN(C)C(=O)[C@H](Cc2ccc(-c3ccccc3)cc2)NC(=O)[C@H](Cc2ccc(-c3ccccc3)cc2)NC(=O)[C@H](C(C)(C)O)NC(=O)CSC[C@@H](C(=O)NCC(N)=O)NC1=O [Example 106] ({CH2CO}-[Val(3-OH)][Bip][Bip][Sar]YDRV[3Pal]VYLCG-NH2; thioether N-13),50 to 200
7,CC(C)[C@@H]1NC(=O)[C@H](CCCNC(=N)N)NC(=O)[C@H](C(C)C)NC(=O)[C@@H]2CCCN2C(=O)[C@H](C(C)C)NC(=O)[C@H](CCCNC(=N)N)NC(=O)[C@H](CC(=O)O)NC(=O)[C@@H]2CCCN2C(=O)CN(C)C(=O)[C@H](Cc2ccc(-c3ccncc3)cc2)NC(=O)[C@H](Cc2ccc(-c3ccccc3)cc2)NC(=O)[C@H](CN2CCOCC2)NC(=O)CSC[C@@H](C(=O)NCC(N)=O)NC1=O [Example 91] ({CH2CO}-[Ala(morpholin-4-yl)][Bip][Phe(4-(4-pyridyl))][Sar]PDRVPVRVCG-NH2; thioether N-13),200 to 2000
8,CC(=O)Nc1ccc(-c2ccc(C[C@@H]3NC(=O)[C@H](Cc4ccc(-c5ccccc5)cc4)NC(=O)[C@H](CN4CCOCC4)NC(=O)CSC[C@@H](C(=O)NCC(N)=O)NC(=O)[C@H](CC(C)C)NC(=O)[C@H](Cc4cccc(CN)c4)NC(=O)[C@H](C(C)C)NC(=O)[C@@H]4CCCN4C(=O)[C@H](C(C)C)NC(=O)[C@@H](CCCNC(=N)N)NC(=O)[C@H](CC(=O)O)NC(=O)[C@H](Cc4ccccn4)NC(=O)CN(C)C3=O)cc2)cc1 [Example 171] ({CH2CO}-[Ala(morpholin-4-yl)][Bip][Bip(4'-NHAc)][Sar][2Pal]D[dR]VPV[Phe(3-CH2NH2)]LCG-NH2; thioether N-13),< 50
9,CC(C)C[C@@H]1NC(=O)[C@H](Cc2ncc[nH]2)NC(=O)[C@H](C(C)C)NC(=O)[C@@H]2CCCN2C(=O)[C@H](C(C)C)NC(=O)[C@@H](CCCNC(=N)NCc2ccccc2)NC(=O)[C@H](CC(=O)O)NC(=O)[C@H](Cc2ccccn2)NC(=O)CN(C)C(=O)[C@H](Cc2ccc(-c3ccc(NC(=O)c4cccc(OCC(=O)O)c4)cc3)cc2)NC(=O)[C@H](Cc2ccc(-c3ccccc3)cc2)NC(=O)[C@H](CN2CCOCC2)NC(=O)CSC[C@@H](C(=O)NCC(N)=O)NC1=O [Example 641] ({CH2CO}-[Ala(morpholin-4-yl)][Bip][Bip(4'-NH)](Benzoyl(3-OCH2COOH))[Sar][2Pal]D[dArg(ω-Bn)]VPV[Ala(imidazol-2-yl)]LCG-NH2; thioether N-13),50 to 200
10,CCCC[C@@H]1NC(=O)[C@@H]2CCCN2C(=O)[C@H](C(C)C)NC(=O)[C@@H](CCCNC(=N)N)NC(=O)[C@H](CC(=O)O)NC(=O)[C@H](Cc2ccc(O)cc2)NC(=O)CN(C)C(=O)[C@H](Cc2ccc(-c3ccccc3)cc2)NC(=O)[C@H](Cc2ccc(-c3ccccc3)cc2)NC(=O)[C@H](CN2CCOCC2)NC(=O)CSC[C@@H](C(=O)NCC(N)=O)NC(=O)[C@H](CC(C)C)NC(=O)[C@H](Cc2ccc(O)cc2)NC1=O [Example 163] ({CH2CO}-[Ala(morpholin-4-yl)][Bip][Bip][Sar]YD[dR]VP[Nle]YLCG-NH2; thioether N-13),200 to 2000
11,CC(=O)Nc1ccc(-c2ccc(C[C@@H]3NC(=O)[C@H](Cc4ccc(-c5ccc(C(=O)O)cc5)cc4)NC(=O)[C@H](CC4CCCCC4)NC(=O)CSC[C@@H](C(=O)NCC(N)=O)NC(=O)[C@H](CC(C)C)NC(=O)[C@H](Cc4cnc[nH]4)NC(=O)[C@H](C(C)C)NC(=O)[C@@H]4CCCN4C(=O)[C@H](C4CCCCC4)NC(=O)[C@@H](CCCNC(=N)N)NC(=O)[C@H](CC(=O)O)NC(=O)[C@H](Cc4cnc[nH]4)NC(=O)CN(C)C3=O)cc2)cc1 [Example 280] ({CH2CO}-[Cha][Bip(4'-COOH)][Bip(4'-NHAc)][Sar]HD[dR][Chg]PVHLCG-NH2; thioether N-13),50 to 200
12,CC(C)C[C@@H]1NC(=O)[C@H](Cc2ccc(O)cc2)NC(=O)[C@H](C(C)C)NC(=O)[C@@H]2CCCN2C(=O)[C@H](C(C)C)NC(=O)[C@@H](CCCNC(=N)N)NC(=O)[C@H](CC(=O)O)NC(=O)[C@@H]2CCCN2C(=O)CN(C)C(=O)[C@H](Cc2ccc(-c3ccc(NC(=O)c4nn(C)c5ccccc45)cc3)cc2)NC(=O)[C@H](Cc2ccc(-c3ccc(C(=O)O)cc3)cc2)NC(=O)[C@H](CC2CCCCC2)NC(=O)CSC[C@@H](C(=O)NCC(N)=O)NC1=O [Example 340] ({CH2CO}-[Cha][Bip(4'-COOH)][X5][Sar]PD[dR]VPVYLCG-NH2; thioether N-13),< 50
13,CC(C)C[C@@H]1NC(=O)[C@H](CCCNC(=N)N)NC(=O)[C@H](C(C)C)NC(=O)[C@@H]2CCCN2C(=O)[C@H](Cc2cccnc2)NC(=O)[C@H](CCCNC(=N)N)NC(=O)[C@H](CC(=O)O)NC(=O)[C@@H]2CCCN2C(=O)CN(C)C(=O)[C@H](Cc2ccc(-c3ccccc3)cc2)NC(=O)[C@H](Cc2ccc(-c3ccccc3)cc2)NC(=O)[C@H](C(C)(C)O)NC(=O)CSC[C@@H](C(=O)NCC(N)=O)NC1=O [Example 60] ({CH2CO}-[Val(3-OH)][Bip][Bip][Sar]PDR[3Pal]PVRLCG-NH2; thioether N-13),200 to 2000
